Measured values published in patent US7709443B2, “Cyclic peptide antitumor agents” (Northwestern University, priority 2003, dated 2010).
Values after ≈ are worked out from the molar mass of the structure shown. Read-outs that look alike come from different tables or passages of the source. Square brackets hold non-standard residues; d marks the D form. Peptide text beside a SMILES is read from it. Phe(4-Br) = N[C@@H](Cc1ccc(Br)cc1)C(=O)O; Phe(4-I) = N[C@@H](Cc1ccc(I)cc1)C(=O)O; NMeF = CN[C@@H](Cc1ccccc1)C(=O)O; Hica(2S) = CC(C)C[C@H](O)C(=O)O; NMeL = CN[C@@H](CC(C)C)C(=O)O; NMeV = CN[C@H](C(=O)O)C(C)C; Aib = CC(C)(N)C(=O)O

Columns and labels:
[1] = tested on: HCT-116 (human colon carcinoma); experiment: cells; conditions: for times more potent than sansalvamide A toward HCT-116: relative to sansalvamide A
Source text: The HCT-116 human colon adenocarcinoma screen is a tissue culture first line assay to detect inherent cytotoxicity against malignant cancer cells. This strain is considered to be an “indicator strain” by many for the selection of inhibitors that target solid tumors. The assay is a calorimetric endpoint assay which can be produced in 96-well format trays. Data are acquired by plate reader and dose response curves are produced by computer analysis. […] This assay is run routinely as described below and would be understood in the art.
1. Media (1000 mL McCoy's 5A Medium, 114 mL Fetal Bovine Serum, 25 mL Hepes buffer solution (IM), 12.5 mL Penicillin-Streptomycin solution)
2. Cell line (HCT-116, human colon cancer cell line)
3. Indicator (MTS and PMS in DPBS)
5. Standard anticancer drug (etoposide (VP-16); stock is 4 mg/mL in DMSO
6. DPBS (without CaCl2 and MgCl2)
1. Remove medium from the cells and rinse with 10 mL sterile DPBS.
3. Allow to stand in hood for 1 minute.
4. Remove trypsin with sterile pipette.
5. Allow flask to stand in hood for 2-5 minutes.
6. Add 10 mL of media to flask and pipette up and down to gently break up cell clumps.
7. Count the number of cells using a hemacytometer.
8. Determine # of plates needed, and total volume of cell suspension (16 or 18 mL per plate).
9. Dilute cells to a final concentration of 2.5×10^4 cells/mL in a sterile flask.
10. Pour cell suspension into a sterile trough.
For Serial Dilution Plates
1. Add 175 μL to each well in the first row of a 96 well plate.
2. Add 150 μL to the rest of the wells in A1-A10 & A12.
3. In row 11 add 150 μL cell suspension to the first 6 wells and only media to the last two.
For Single Concentration Plates
1. Add 150 μL of sterile media to G11 & H11.
2. Add 150 μL of cell suspension to all other wells.
3. Add 25 μL more to well H1.
Incubate plates overnight at 37° C. & 5% CO2
1. Add 25 μL of test compounds @ 10 mg/mL to A1-A10, 25 μL of DMSO to A11 & 25 μL of etoposide (4 mg/mL) to A12.
2. Using a twelve channel pipette, mix well then remove 50 μL from the first row and transfer to the next row, repeat down the plate until row F, then remove tip # 11 and continue down plate discarding the last 50 μL.
3. Incubate plates for 72 h.
1. Add 20 μL of MTS/PMS solution to each well.
3. Read plates @490 nm on plate reader.

[2] = tested on: PC-3 (Prostate) human cancer cell line; conditions: three days
Description: (§4) Cells were plated at 5,000 cells per well in 24-well plates, treated for three days, then counted. Cell number was normalized to the number of cells in untreated control (DMSO) cells, also after three days.

[3] = tested on: MDA-MB231 (Breast) human cancer cell line; conditions: three days
Description: as §4

[4] = tested on: WM115 (Melanoma) human cancer cell line; conditions: three days
Description: as §4

[5] = tested on: Caspase-3 activity in PC-3 cells; experiment: Caspase-3 activity, fluorometric assay; format: cell-based, human; conditions: relative to DMSO and staurosporin controls
Description: Caspase-3 is a mediator of apoptosis, and induction of Caspase-3 activity indicates induction of apoptosis. Activity of Caspase-3 was measured by a fluorometric assay, as described in the literature, referenced above.

[6] = tested on: AsPC-1 cells; experiment: Cell proliferation assay (Guava ViaCount cell number), AsPC-1; format: cell-based, human; conditions: AsPC-1, 10 μM, 72 hours, vs vehicle (DMSO)
Description: (§1) Given the results of the preceding example, several compounds of this invention were tested against human pancreatic cancer cell lines. Two cancer cell lines were selected: S2-013 (well-differentiated) and AsPC-1 (poorly differentiated). These cell lines were purchased from American Type Culture Collection (Manassas, Va.). Both cell lines were grown in DMEM and plated as monolayers in the medium supplemented with 10% fetal bovine serum in a humidified atmosphere of […] and 5% CO2 at 37° C. The cells were regularly seeded into 75 cm^2 flasks with media changes every second or third day. For experiments, cells were grown to 70% confluence, digested with trypsin-EDTA, and plated in either 6-, 24-, or 48-well plates.
(§2) Cell Proliferation Assay. Cells were regularly seeded into three 6-well plates and incubated at 37° C. for 24 hours. Cells were then cultured in serum-free medium for another 24 hours and treated in fresh serum-free medium with or without 10 μM of cyclic peptide 1k for 24, 48, and 72 hours. At the end of each time period, the cells were trypsinized to produce a single cell suspension, and the cell number in each well was determined using Guava Technologies=ViaCount Assay (Guava Technologies Inc, Hayward, Calif.).
(§3) Statistical Analysis. Data were analyzed by ANOVA with Dunnett's or Bonferoni's corrections for multiple comparisons, as appropriate. This analysis was performed with the Prism software package (GraphPad, San Diego, Calif.). Data were expressed as mean±SEM.

[7] = tested on: S2-013 cell line; experiment: Cell proliferation assay (Guava ViaCount cell number), S2-013; format: cell-based, human; conditions: S2-013, 10 μM, 72 hours, vs vehicle (DMSO)
Description: as §1, §2, §3

| IC50 ([1]; Homo sapiens, HCT-116) [µg/mL] | Structure (SMILES) | IC50 ([1]; HCT-116 bioassay, Table 1) [µg/mL] | times more potent than sansalvamide A toward HCT-116 [1] | Fold Induction Over DMSO control ([2]; PC-3, 1 μM) | Fold Induction Over DMSO control ([2]; PC-3, 10 μM) | Fold Induction Over DMSO control ([3]; MDA-MB231, 1 μM) | Fold Induction Over DMSO control ([3]; MDA-MB231, 10 μM) | Fold Induction Over DMSO control ([4]; WM115, 1 μM) | Fold Induction Over DMSO control ([4]; WM115, 10 μM) | Caspase-3 activity [5] | change in number of cells [6] | change in number of cells [7] |
| --- | --- | --- | --- | --- | --- | --- | --- | --- | --- | --- | --- | --- |
| – | CC(C)C[C@@H]1NC(=O)[C@H](C(C)C)NC(=O)[C@H](CC(C)C)OC(=O)[C@H](CC(C)C)NC(=O)[C@H](Cc2ccc(Br)cc2)NC1=O (cyclo(L[Phe(4-Br)]L[Hica(2S)]V)) | 4.5 (≈ 6.76 µM) | – | – | – | – | – | – | – | – | – | – |
| – | CC(C)C[C@@H]1NC(=O)[C@H](C(C)C)NC(=O)[C@H](CC(C)C)OC(=O)[C@H](CC(C)C)NC(=O)[C@H](Cc2ccc(I)cc2)NC1=O (cyclo(L[Phe(4-I)]L[Hica(2S)]V)) | 11.3 (≈ 15.9 µM) | – | – | – | – | – | – | – | – | – | – |
| – | CC(C)C[C@@H]1NC(=O)[C@H](Cc2ccccc2)NC(=O)[C@H](CC(C)C)NC(=O)[C@H](C(C)C)NC(=O)[C@H](CC(C)C)NC1=O [Compound 1, sansalvamide A peptide] (cyclo(FLLVL)) | 0.98 (≈ 1.67 µM) | about 10 times | 1.03 | 0.90 | 0.91 | 0.69 | 0.92 | 0.56 | – | – | – |
| – | CC(C)C[C@@H]1NC(=O)[C@H](Cc2ccc(Br)cc2)NC(=O)[C@H](CC(C)C)NC(=O)[C@H](C(C)C)NC(=O)[C@H](CC(C)C)NC1=O [Compound 1a] (cyclo([Phe(4-Br)]LLVL)) | – | – | 0.94 | 0.74 | 0.95 | 0.60 | 0.85 | 0.99 | – | – | – |
| – | CC(C)C[C@@H]1NC(=O)[C@H](C(C)C)NC(=O)[C@H](CC(C)C)NC(=O)[C@H](CC(C)C)N(C)C(=O)[C@H](Cc2ccccc2)NC1=O [Compound 1b] (cyclo(F[NMeL]LVL)) | – | – | 1.24 | 0.81 | 0.87 | 0.71 | 1.02 | 3.02 | – | – | – |
| – | CC(C)C[C@@H]1NC(=O)[C@H](C(C)C)NC(=O)[C@H](CC(C)C)NC(=O)[C@H](CC(C)C)N(C)C(=O)[C@H](Cc2ccc(Br)cc2)NC1=O [Compound 1c] (cyclo([Phe(4-Br)][NMeL]LVL)) | – | – | 0.75 | – | 0.56 | – | 1.10 | – | induced | – | – |
| – | CC(C)C[C@@H]1NC(=O)[C@H](C(C)C)NC(=O)[C@H](CC(C)C)N(C)C(=O)[C@H](CC(C)C)NC(=O)[C@H](Cc2ccccc2)NC1=O [Compound 1d] (cyclo(FL[NMeL]VL)) | – | – | 0.63 | 0.52 | 1.09 | 0.91 | 0.87 | 0.98 | – | – | – |
| – | CC(C)C[C@@H]1NC(=O)[C@H](C(C)C)NC(=O)[C@H](CC(C)C)N(C)C(=O)[C@H](CC(C)C)NC(=O)[C@H](Cc2ccc(Br)cc2)NC1=O [Compound 1e] (cyclo([Phe(4-Br)]L[NMeL]VL)) | – | – | 0.62 | 0.82 | 1.20 | 0.82 | 0.89 | 0.95 | – | – | – |
| – | CC(C)C[C@@H]1NC(=O)[C@H](Cc2ccccc2)NC(=O)[C@H](CC(C)C)NC(=O)[C@H](C(C)C)N(C)C(=O)[C@H](CC(C)C)NC1=O [Compound 1f] (cyclo(FLL[NMeV]L)) | – | – | 0.92 | 0.74 | 1.04 | 0.26 | 1.00 | 1.06 | – | – | – |
| – | CC(C)C[C@@H]1NC(=O)[C@H](Cc2ccc(Br)cc2)NC(=O)[C@H](CC(C)C)NC(=O)[C@H](C(C)C)N(C)C(=O)[C@H](CC(C)C)NC1=O [Compound 1g] (cyclo([Phe(4-Br)]LL[NMeV]L)) | – | – | 0.74 | 0.67 | 0.88 | 0.31 | 1.02 | 0.84 | – | – | – |
| – | CC(C)C[C@@H]1NC(=O)[C@H](Cc2ccccc2)NC(=O)[C@H](CC(C)C)N(C)C(=O)[C@H](C(C)C)NC(=O)[C@H](CC(C)C)NC1=O [Compound 1h] (cyclo(FLLV[NMeL])) | – | – | 0.79 | 0.64 | 1.01 | 0.28 | 1.13 | 0.51 | – | – | – |
| – | CC(C)C[C@@H]1NC(=O)[C@H](CC(C)C)NC(=O)[C@H](Cc2ccccc2)N(C)C(=O)[C@H](CC(C)C)NC(=O)[C@H](C(C)C)NC1=O [Compound 1j] (cyclo([NMeF]LLVL)) | – | – | 0.86 | 0.8 | 0.78 | 0.82 | 1.75 | 0.60 | – | – | – |
| – | CC(C)C[C@@H]1NC(=O)[C@H](Cc2ccccc2)NC(=O)[C@H](Cc2ccccc2)N(C)C(=O)[C@H](Cc2ccccc2)NC(=O)C(C)(C)NC(=O)[C@H](CC(C)C)N(C)C(=O)[C@@H]2CCCN2C1=O [Scytalidamide A, reference compound] (cyclo(F[NMeF]FLP[NMeL][Aib])) | – | – | 0.63 | 0.15 | 2.75 | 0.11 | 1.01 | 0.07 | – | significant (p<0.05) decrease | exception |
| – | CC(C)C[C@@H]1NC(=O)[C@H](C(C)C)NC(=O)[C@H](CC(C)C)N(C)C(=O)[C@H](CC(C)C)NC(=O)[C@H](Cc2ccc(Br)cc2)NC1=O [drawing 9] (cyclo([Phe(4-Br)]L[NMeL]VL)) | 0.11 (≈ 0.162 µM) | ~100 times | – | – | – | – | – | – | – | – | – |
| 1.5 (≈ 2.55 µM) | COc1cc([C@@H]2c3cc4c(cc3[C@@H](O[C@@H]3O[C@@H]5CO[C@@H](C)O[C@H]5[C@H](O)[C@H]3O)[C@H]3COC(=O)[C@H]23)OCO4)cc(OC)c1O [etoposide, reference compound] | – | – | – | – | – | – | – | – | – | – | – |
